In ChEMBL document CHEMBL5137001, “Examination of multiple Trypanosoma cruzi targets in a new drug discovery approach for Chagas disease” (Bioorg Med Chem, 2022):

How the values were obtained:
[1] = biological target: T1, Triosephosphate isomerase, glycosomal (Trypanosoma cruzi, UniProt P52270); assay: Inhibition of recombinant Trypanosoma cruzi TIM using glyceraldehyde 3-phosphate as substrate
Trypanothione reductase [2] = biological target: T2, Trypanothione reductase (Trypanosoma cruzi, UniProt P28593); assay: Inhibition of Trypanosoma cruzi TR assessed as inhibition constant
Cruzipain [3] = biological target: T3, Cruzipain (Trypanosoma cruzi, UniProt P25779); assay: Inhibition of Trypanosoma cruzi Cruzaine
[4] = biological target: T4, Bifunctional dihydrofolate reductase-thymidylate synthase (Trypanosoma cruzi, UniProt Q27793); assay: Inhibition of recombinant Trypanosoma cruzi DHFR-TS assessed as inhibition constant
[5] = biological target: T4, Bifunctional dihydrofolate reductase-thymidylate synthase; assay: Inhibition of Trypanosoma cruzi DHFR-TS in presence of NADPH by spectrophotometry
[6] = Inhibition of Trypanosoma cruzi PTR1 using folic acid as substrate in presence of NADPH by spectrophotometry
[7] = biological target: T1, Triosephosphate isomerase, glycosomal; assay: Inhibition of Trypanosoma cruzi TIM expressed in Escherichia coli using glyceraldehyde 3-phosphate as substrate in presence of NADH/alphaGDPH measured after 2 hrs by spectrophotometry
[8] = Inhibition of Trypanosoma cruzi DHODH assessed as inhibition constant measured for 5 mins by spectrophotometry
Trypanothione reductase [9] = biological target: T2, Trypanothione reductase; assay: Inhibition of Trypanosoma cruzi TR assessed as inhibition constant in presence of NADPH
[10] = biological target: T1, Triosephosphate isomerase, glycosomal; assay: Inhibition of Trypanosoma cruzi TIM
Cruzipain [11] = biological target: T3, Cruzipain; assay: Inhibition of Cruzaine derived from epimastigotes of Trypanosoma cruzi Tul2 strain using Z-FR-AMC as substrate assessed as release of 7-amino-4-methylcoumarin by fluorimetry
[12] = biological target: Sterol 14-alpha demethylase (Trypanosoma cruzi (strain CL Brener), UniProt Q7Z1V1); assay: Displacement of [3H]-Eubricol from C-terminal His-tagged full-length Trypanosoma cruzi Tulahuen strain CYP51 expressed in Escherichia coli HMS174(DE3) assessed as dissociation constant preincubated for 5 mins measured after 60 mins by enzymatic assay
[13] = biological target: T1, Triosephosphate isomerase, glycosomal; assay: Inhibition of Trypanosoma cruzi TIM expressed in Escherichia coli using glyceraldehyde 3-phosphate as substrate preincubated for 2 hrs in presence of NADH/alphaGDPH by spectrophotometry
[14] = biological target: T4, Bifunctional dihydrofolate reductase-thymidylate synthase; assay: Inhibition of Trypanosoma cruzi DHFR-TS assessed as inhibition constant using DHF as substrate in presence of NADPH by spectrophotometry
Cruzipain [15] = biological target: T3, Cruzipain; assay: Inhibition of Trypanosoma cruzi Cruzaine using Z-Phe-Arg-AMC as substrate preincubated for 15 mins measured for 10 mins by […]

T2 sequence (P28593 whole entry): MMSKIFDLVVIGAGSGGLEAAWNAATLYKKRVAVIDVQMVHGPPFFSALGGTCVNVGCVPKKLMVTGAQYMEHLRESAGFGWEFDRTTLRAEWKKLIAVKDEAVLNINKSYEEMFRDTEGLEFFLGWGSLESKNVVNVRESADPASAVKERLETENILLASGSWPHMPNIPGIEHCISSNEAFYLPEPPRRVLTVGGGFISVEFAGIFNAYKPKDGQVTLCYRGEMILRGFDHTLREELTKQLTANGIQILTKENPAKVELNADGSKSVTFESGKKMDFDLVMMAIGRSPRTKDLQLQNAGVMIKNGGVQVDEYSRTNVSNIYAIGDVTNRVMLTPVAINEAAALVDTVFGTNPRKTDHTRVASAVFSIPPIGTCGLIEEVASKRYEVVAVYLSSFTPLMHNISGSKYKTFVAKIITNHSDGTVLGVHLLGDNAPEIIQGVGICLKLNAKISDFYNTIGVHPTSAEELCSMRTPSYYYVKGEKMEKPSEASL
T4 sequence (Q27793 whole entry): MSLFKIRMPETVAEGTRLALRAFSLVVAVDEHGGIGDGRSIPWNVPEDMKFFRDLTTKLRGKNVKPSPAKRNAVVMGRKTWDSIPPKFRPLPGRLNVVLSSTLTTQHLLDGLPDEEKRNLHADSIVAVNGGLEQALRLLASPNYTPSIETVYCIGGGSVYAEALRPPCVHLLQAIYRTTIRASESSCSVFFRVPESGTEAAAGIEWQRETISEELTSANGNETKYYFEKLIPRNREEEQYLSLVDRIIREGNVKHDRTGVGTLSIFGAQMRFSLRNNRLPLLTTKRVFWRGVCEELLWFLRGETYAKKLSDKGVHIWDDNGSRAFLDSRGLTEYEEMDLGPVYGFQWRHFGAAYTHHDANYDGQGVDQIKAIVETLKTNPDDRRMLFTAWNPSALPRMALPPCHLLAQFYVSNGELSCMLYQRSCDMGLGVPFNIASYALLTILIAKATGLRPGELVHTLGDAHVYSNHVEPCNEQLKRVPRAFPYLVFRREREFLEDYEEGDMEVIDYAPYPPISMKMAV
T3 sequence (P25779 whole entry): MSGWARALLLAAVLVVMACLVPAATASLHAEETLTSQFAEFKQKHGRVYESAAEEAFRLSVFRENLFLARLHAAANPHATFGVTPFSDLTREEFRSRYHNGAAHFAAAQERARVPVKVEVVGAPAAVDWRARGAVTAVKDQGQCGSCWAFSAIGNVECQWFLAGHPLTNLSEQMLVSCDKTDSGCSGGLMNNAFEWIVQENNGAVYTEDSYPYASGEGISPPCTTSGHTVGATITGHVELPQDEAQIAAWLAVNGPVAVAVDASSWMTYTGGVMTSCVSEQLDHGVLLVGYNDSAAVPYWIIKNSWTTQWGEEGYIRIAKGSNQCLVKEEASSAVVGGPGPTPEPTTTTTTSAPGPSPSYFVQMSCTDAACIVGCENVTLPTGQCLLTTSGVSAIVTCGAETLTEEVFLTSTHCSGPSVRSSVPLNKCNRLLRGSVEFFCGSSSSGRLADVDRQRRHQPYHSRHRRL
T1 sequence (P52270 whole entry): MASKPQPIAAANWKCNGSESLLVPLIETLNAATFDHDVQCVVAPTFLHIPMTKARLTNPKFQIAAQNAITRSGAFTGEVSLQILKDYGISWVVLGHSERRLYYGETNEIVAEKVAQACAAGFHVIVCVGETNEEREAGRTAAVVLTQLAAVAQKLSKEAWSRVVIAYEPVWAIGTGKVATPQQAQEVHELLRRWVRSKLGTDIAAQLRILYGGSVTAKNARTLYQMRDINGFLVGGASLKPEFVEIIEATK
Chain of Sterol 14-alpha demethylase (Q7Z1V1 whole entry): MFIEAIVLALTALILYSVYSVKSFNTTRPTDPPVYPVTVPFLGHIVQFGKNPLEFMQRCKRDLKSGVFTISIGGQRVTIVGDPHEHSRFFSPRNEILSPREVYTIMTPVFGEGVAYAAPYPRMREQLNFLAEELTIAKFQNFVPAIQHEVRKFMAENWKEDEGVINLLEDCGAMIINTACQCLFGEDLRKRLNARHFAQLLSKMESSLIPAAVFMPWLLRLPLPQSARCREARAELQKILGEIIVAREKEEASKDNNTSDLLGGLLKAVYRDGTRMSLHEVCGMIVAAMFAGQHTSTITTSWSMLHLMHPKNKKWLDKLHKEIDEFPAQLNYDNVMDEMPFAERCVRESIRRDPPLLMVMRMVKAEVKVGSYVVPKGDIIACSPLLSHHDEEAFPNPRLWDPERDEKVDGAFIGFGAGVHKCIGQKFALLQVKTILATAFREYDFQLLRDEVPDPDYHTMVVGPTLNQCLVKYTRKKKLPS

SMILES: O=S(=O)(O)CCCSc1nc2ccccc2s1
- IC50 [1]: 33 µM

SMILES: c1ccc(-c2sc(C3(N4CCCC4)CCCCC3)cc2-c2ccc3cc[nH]c3c2)cc1
- Ki (Trypanothione reductase [2]): 10 µM

SMILES: CN1CCN(CCn2ccc3cc(-c4ncc(C5(N6CCCC6)CCCCC5)s4)ccc32)CC1
- Ki (Trypanothione reductase [2]): 3.8 µM

SMILES: COc1ccc(NC(=O)COC(=O)C(CC(C)C)N2C(=O)C(Cl)=C(Cl)C2=O)cc1 (configuration not stated)
- IC50 (Cruzipain [3]): 0.6 µM

SMILES: CC(C)Oc1cccc(Cc2cnc(N)nc2N)c1
- Ki [4]: 0.023 µM

SMILES: CN(Cc1cnc2nc(N)nc(N)c2n1)c1ccc(C(=O)N[C@@H](CCC(=O)O)C(=O)O)cc1 [METHOTREXATE]
- IC50 [5]: 0.11 µM
- IC50 [6]: 38 pM

SMILES: COc1ccc(-c2c/c(=[S+]/CC(C)=O)ss2)cc1
- IC50 [7]: 11 µM

SMILES: O=C1NC(=O)C(CCc2ccc3cc(C(=O)O)ccc3c2)C(C(=O)O)N1 (configuration not stated)
- Ki [8]: 0.02 µM

SMILES: Cc1ccc(C)c(OC2=CC(=O)c3ccncc3C2=O)c1
- Ki (Trypanothione reductase [9]): 6 µM

SMILES: O=C(/C=C/C=C/c1ccco1)/C=C/C=C/c1ccco1
- IC50 [10]: 3 µM

SMILES: CCOC(=O)/C=C/C(=O)[C@H](CC(C)C)NC(=O)[C@@H](CC(=O)c1ccccc1)Cc1ccccc1
- IC50 (Cruzipain [3]): 20 µM

SMILES: CC(C)CC(NC(=O)c1ccc(-c2ccccc2)o1)C(=O)NC1(C#N)CC1 (configuration not stated)
- IC50 (Cruzipain [11]): 30.3 µM

SMILES: OC(Cn1cnnn1)(c1ccc(F)cc1F)C(F)(F)c1ccc(-c2ccc(OCC(F)(F)F)cn2)cn1 (configuration not stated)
- Kd [12]: 0.024 µM

SMILES: CC(C)CC(=O)c1ccc2c(c1)[n+]([O-])c(C(=O)C(C)C)c(C(F)(F)F)[n+]2[O-]
- Ki (Trypanothione reductase [2]): 19 µM

SMILES: [O-][NH+]1c2ccc(O)cc2[NH+]([O-])c2cc(Cl)c(Cl)cc21 (configuration not stated)
- IC50 [13]: 26 µM

SMILES: O=C1C(Br)=C(Oc2ccc3ccccc3c2)C(=O)c2ccccc21
- Ki (Trypanothione reductase [9]): 1.1 µM

SMILES: Cc1ccc2nc(-c3ccc4nc(-c5ccc(N)cc5)sc4c3)sc2c1S(=O)(=O)O
- IC50 [1]: 8 µM

SMILES: Nc1ncc(Cc2ccc(Oc3ccccc3)cc2)c(N)n1
- Ki [4]: 0.03 µM

SMILES: O=C(CSc1nc2ccccc2[nH]1)Nc1ncc([N+](=O)[O-])s1
- IC50 [10]: 3 µM

SMILES: COc1cc(NCc2ccc3nc(N)ncc3c2C)cc(OC)c1OC
- Ki [14]: 0.0066 µM

SMILES: O=C1/C(=C/C=C/c2ccco2)CCC/C1=C\C=C\c1ccco1
- IC50 (Cruzipain [15]): 37 µM
